Laboratory results reported in patent publication US6693166B1, “Cdk5—specific inhibitory peptides” (Hong Kong University of Science and Technology, priority 1999, dated 2004).
Where a SMILES comes first, the peptide text is derived from it. Where no end group is shown, it is not given here.

Tests used:
[1] = target: T1, GST-Cdk5.GST-Nck5a complex (Homo sapiens, UniProt Q00535); assay: Peptide inhibition of Cdk5 kinase activity (histone H1 peptide, [γ-32P]ATP); assay type: biochemical; settings: for inhibition of Cdk5 kinase activity (in words): GST-Cdk5.GST-Nck5a, FIG. 2 and 3A
T1 construct: made in house
Procedure: (§1) Peptide Inhibition of Cdk5 and Cdk2 Kinase Activity—Cdk5 kinase activity was assayed essentially as described previously, except that for each Cdk5 kinase reaction 1 μg of GST-Cdk5 was reconstituted with 2 μg of GST-Nck5a, and 1 μg of GST-Cdk2 was mixed with 3 μg of cyclin A-H6 in Cdk2 assays. The reconstituted complexes were added, in duplicate, to an assay mixture containing 30 mM MOPS, pH 7.4, 10 mM MgCl2, 40 μM of the histone H1 peptide, 50 μM [γ-^32P]ATP, and various concentrations of various peptides at 30° C. for 30 min before measuring the Cdk5 and Cdk2 kinase activities.

[2] = target: T2, GST-Cdk2-cyclin A-H6 complex (Homo sapiens, UniProt P24941); assay: Peptide inhibition of Cdk2 kinase activity (histone H1 peptide, [γ-32P]ATP); assay type: biochemical; settings: for inhibition of Cdk2 kinase activity (in words): GST-Cdk2.cyclin A-H6, FIG. 3B
T2 construct: made in house; host or cells: E. coli BL21(DE3) (cyclin A-H6); GST-Cdk2 not described
Procedure: The C-terminal histidine-tagged human cyclin A (cyclin A-H6) was expressed and purified in essentially the same manner as described for H6-Cdk5. Briefly, the expression plasmid pET21d containing a cyclin A gene lacking the N-terminal 173 amino acids was transformed into BL21(DE3) E. coli cells. The host cells were cultured in LB medium containing 100 μg/ml ampicillin, and cyclin A expression was induced by adding isopropyl-1-thio-β-D-galactopyranoside to a final concentration of 0.1 mM. The induction of cyclin A expression was for 3 h at 30° C. The pelleted cells were resuspended in 50 mM Tris-HCI, pH 7.5, 300 mM NaCl, and 0.05% Triton X-100, and then lysed in the French press. The subsequent purification of cyclin A using a Ni^2+-NTA column was carried out in a manner identical to that described for the purification of H6-Cdk5. The monomeric, active form of cyclin A-H6 was further purified by passing the cyclin A-H6-containing eluent through a Sephacryl S-200 gel filtration column (Amersham Pharmacia Biotech).
as §1

[3] = target: T3, H6-Cdk5.GST-Nck5a complex (Homo sapiens, UniProt Q00535); assay: Peptide/Cdk binding assay: GSH-bead co-precipitation and Western blot of Cdk5; settings: various amounts of peptide (5, 20, 50 μM; 1000-fold excess)
T3 construct: made in house; host or cells: Escherichia coli M15 (H6-Cdk5)
Procedure: Peptide/Cdk Binding Assay—H6-Cdk5 (about 3 μg) and 15 μg of GST-p25 were premixed in 300 μl of 1×phosphate-buffered saline with 0.5 mg/ml bovine serum albumin. Some 50-μl quantities of the mixture was taken out to mix with various concentrations of the αN peptide (from serial dilutions made from a 2.0 mM stock solution), and the total volume of the mixture was adjusted to 150 μl using Buffer R (1×phosphate-buffered saline containing 1 mM EDTA, 1 mM dithiothreitol, 0.6 mM phenylmethylsulfonyl fluoride, 1 μg/ml leupeptin, 1 μg/ml leupeptin, 1 μg/ml antipain, 5 mg/ml bovine serum albumin). The reaction mixture was incubated at 4° C for 15 h. GST-Nck5a-H6-Cdk5 complex was then precipitated by the addition of 40 μl of GSH-Sepharose beads pre-equilibrated with 1×phosphate-buffered saline (50%, v/v). The GSH-Sepharose beads were washed three times with 1×phosphate-buffered saline buffer, and subsequently resuspended in 20 μl of water and 20 μl of 2×protein sample treatment buffer. The co-precipitated H6-Cdk5 was detected by SDS-PAGE followed by Western blot using a monoclonal antibody against Cdk5.
To discriminate between these possibilities, we performed direct binding competition experiments. […] The amount of H6-Cdk5 in complex with GST-Nck5a was determined by Western blotting of the enzyme co-precipitated by GSH-agarose beads. […]

[4] = target: T2, GST-Cdk2-cyclin A-H6 complex; assay: Peptide/Cdk binding assay: GSH-bead co-precipitation and Western blot of cyclin A; settings: various amounts of peptide (0.5, 2, 10 μM; 1000-fold excess)
Procedure: The binding of the αN peptide to the GST-Cdk2-cyclin A-H6 complex was studied in a similar manner to that described above for H6-Cdk5. Briefly, 3 μg of GST-Cdk2 and 10 μg of cyclin A-H6 were reconstituted in Buffer R with various concentrations of the αN peptide at 4° C. for 15 h. GST-Cdk2 was then precipitated by the addition of 20 μl of GSH-Sepharose beads. After washing, the co-precipitated cyclin A-H6 was detected by SDS-PAGE followed by Western blot using a monoclonal antibody against cyclin A (Santa Cruz).
To discriminate between these possibilities, we performed direct binding competition experiments. Various concentrations of the peptides were added to a H6-Cdk5.GST-Nck5a mixture, and GST-Nck5a was then precipitated using GSH-agarose beads. The amount of H6-Cdk5 in complex with GST-Nck5a was determined by Western blotting of the enzyme co-precipitated by GSH-agarose beads. The amount of H6-Cdk5 and cyclin A-H6 used in the experiment described in FIG. 4, A and B, were chosen to ensure that their respective antibodies would be in excess.

[5] = target: T1, GST-Cdk5.GST-Nck5a complex; assay: Steady state kinetic analysis of Cdk5 inhibition (double reciprocal and Dixon plots); assay type: biochemical
Procedure: as §1
Steady State Kinetic Experiments—All assay conditions were the same as in the inhibition assay described above, except that the reaction time was kept at 15 min so that the product formed was less than 5% of the total substrate concentration used. To determine suitable concentrations of the substrate and the inhibitor for the steady state kinetic experiments, the Km value of GST-Cdk5.GST-Nck5a complex and a concentration-dependent inhibition profile of the enzyme by the αN peptide were determined. Four different concentrations of the histone H1 peptide (7.5, 10, 15, and 30 μM) were used in the kinetic analysis of the enzyme inhibition. For each substrate concentration, four concentrations of the αN peptide (0, 10, 20, and 30 μM) were used in the inhibition assay.

[6] = listed as Nck5a-derived peptide

T1 sequence (Q00535 whole entry): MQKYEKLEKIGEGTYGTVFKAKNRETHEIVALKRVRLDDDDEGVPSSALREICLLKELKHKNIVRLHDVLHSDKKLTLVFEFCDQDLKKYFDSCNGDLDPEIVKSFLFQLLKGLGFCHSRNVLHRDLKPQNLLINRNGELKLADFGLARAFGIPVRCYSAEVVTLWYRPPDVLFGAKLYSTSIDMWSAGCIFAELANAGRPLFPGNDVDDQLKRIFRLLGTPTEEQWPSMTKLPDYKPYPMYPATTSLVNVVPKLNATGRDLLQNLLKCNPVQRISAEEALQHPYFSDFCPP
T1 sequence (Q15078 99-307 partner limits assumed): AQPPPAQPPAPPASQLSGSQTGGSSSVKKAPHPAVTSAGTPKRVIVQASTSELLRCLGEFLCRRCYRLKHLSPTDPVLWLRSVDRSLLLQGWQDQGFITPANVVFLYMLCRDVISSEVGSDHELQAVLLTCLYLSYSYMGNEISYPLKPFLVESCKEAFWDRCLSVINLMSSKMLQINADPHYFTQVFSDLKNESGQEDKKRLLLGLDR
T3 sequence (Q00535 whole entry): as the sequence (Q00535 whole entry) above
T3 sequence (Q15078 99-307 partner limits assumed): as the sequence (Q15078 99-307 partner limits assumed) above

Row | inhibition at 5 µM ([1]; 5 μM peptide, heading: inhibition of Cdk5 activity) [%] | inhibition at 20 µM ([1]; 20 μM peptide) [%] | inhibition at 50 µM ([1]; 50 μM peptide) [%] | inhibition of Cdk5 activity ([1]; 50 μM peptide) | effect of a large excess of GST-Nck5a on Cdk5 inhibition by the peptide ([1]; 50 μM peptide, 2, 20, 40 μg GST-p25 with 1 μg GST-Cdk5) | inhibition at 0.5 µM ([2]; 0.5 μM peptide) [%] | inhibition at 2 µM ([2]; 2 μM peptide) [%] | inhibition at 10 µM ([2]; 10 μM peptide) [%] | dissociation of cyclin A from Cdk2 on addition of peptide [4] | inhibition of the kinase by an excess amount of peptide ([5]; 400 μM peptide, data not shown) | mode of inhibition with respect to the substrate (histone H1 peptide) ([5]; double-reciprocal plot) | Cdk5 kinase activity inhibited ([1]; GST-αN concentration of 5 μM) | Compound | inhibition of Cdk2 kinase activity (in words) [2] | dissociation of Nck5a from Cdk5 on addition of peptide [3] | dissociation of Nck5a from Cdk5 on addition of peptide [3, 6] | dissociation of cyclin A from Cdk2 on addition of peptide [4, 6] | inhibition of Cdk5 kinase activity (in words) [1]
1 | 10 | 50 | 90 | about 90% | no significant effect | 10 | 50 | 90 | formation of a ternary complex | near complete inhibition | noncompetitive inhibitor |  | CC(C)C[C@H](NC(=O)[C@H](CS)NC(=O)[C@H](CCCNC(=N)N)NC(=O)[C@H](CC(C)C)NC(=O)[C@H](CC(C)C)NC(=O)[C@H](CCC(=O)O)NC(=O)[C@H](CO)NC(=O)[C@@H](NC(=O)[C@H](CO)NC(=O)[C@H](C)N)[C@@H](C)O)C(=O)NCC(=O)N[C@@H](CCC(=O)O)C(=O)N[C@@H](Cc1ccccc1)C(=O)N[C@@H](CC(C)C)C(=O)N[C@@H](CS)C(=O)N[C@@H](CCCNC(=N)N)C(=O)N[C@@H](CCCNC(=N)N)C(=O)N[C@@H](CS)C(=O)N[C@@H](Cc1ccc(O)cc1)C(=O)N[C@@H](CCCNC(=N)N)C(=O)N[C@@H](CC(C)C)C(=O)N[C@@H](CCCCN)C(=O)N[C@@H](Cc1c[nH]cn1)C(=O)N[C@@H](CC(C)C)C(=O)N[C@@H](CO)C(=O)N1CCC[C@H]1C(=O)N[C@H](C(=O)N[C@@H](CC(=O)O)C(=O)O)[C@@H](C)O [αN peptide] (H-ASTSELLRCLGEFLCRRCYRLKHLSPTD-OH; N-terminus and C-terminus assumed) | even higher potency than in the case with Cdk5.Nck5a inhibition | did not lead to a dissociation of GST-Nck5a from H6-Cdk5 | does not lead to the dissociation of Nck5a from Cdk5 | does not lead to the dissociation of Nck5a from Cdk5 or cyclin A from Cdk2 | 
2 |  |  |  |  |  |  |  |  |  |  |  |  | DYHDIHTYLREMEVKPKPKVGYMKKQPDIT (DYHEDIHTYLREMEVKCKPKVGYMKKQPDIT; listed as Homo sapiens) [cyclin A peptide, 31-residue peptide corresponding to Asp177 to Thr207 of human cyclin A, the N-terminal alpha-helix, reference compound] | inhibited neither GST-Cdk5.GST-Nck5a nor GST-Cdk2.cyclin A-H6 |  |  |  | inhibited neither GST-Cdk5.GST-Nck5a nor GST-Cdk2.cyclin A-H6
3 |  |  |  |  |  |  |  |  |  |  |  | About 50% | GST-αN: GST fusion mutant containing a 29-residue peptide fragment corresponding to residues Gln145 to Asp173 of Nck5a (QASTSELLRCLGEFLCRRCYRLKHLSPTD; cysteine pairing not given here; also: fused to GST) | also inhibited the kinase activity of Cdk2 |  |  |  | inhibit Cdk5 kinase activity in a dose-dependent manner
